# In article PMC7803973, “Structural basis of malaria parasite phenylalanine tRNA-synthetase inhibition by bicyclic azetidines” (Nature Communications, 2021):
# Entries after “also recorded” stand apart in the source; their conditions may differ.
# Target: T1, PfcFRS (Plasmodium falciparum, UniProt Q8I246)
# T1 sequence (Q8I246 1-575): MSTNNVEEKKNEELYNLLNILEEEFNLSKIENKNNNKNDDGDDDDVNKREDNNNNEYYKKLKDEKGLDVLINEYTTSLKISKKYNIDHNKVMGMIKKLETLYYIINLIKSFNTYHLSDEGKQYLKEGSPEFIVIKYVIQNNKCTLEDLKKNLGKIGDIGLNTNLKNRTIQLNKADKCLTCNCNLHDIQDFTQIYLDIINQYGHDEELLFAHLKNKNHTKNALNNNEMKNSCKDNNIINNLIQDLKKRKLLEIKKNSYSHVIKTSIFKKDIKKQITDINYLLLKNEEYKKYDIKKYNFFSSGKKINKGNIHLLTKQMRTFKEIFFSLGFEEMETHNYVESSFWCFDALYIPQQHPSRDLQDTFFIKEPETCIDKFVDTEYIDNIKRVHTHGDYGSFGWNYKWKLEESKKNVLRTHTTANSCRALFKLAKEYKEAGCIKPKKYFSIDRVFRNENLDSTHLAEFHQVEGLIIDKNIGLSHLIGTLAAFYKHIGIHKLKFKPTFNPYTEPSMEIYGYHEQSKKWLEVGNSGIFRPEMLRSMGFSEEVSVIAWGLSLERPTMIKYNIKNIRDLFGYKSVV
# T1 sequence (Q8IIW2 1-623 partner): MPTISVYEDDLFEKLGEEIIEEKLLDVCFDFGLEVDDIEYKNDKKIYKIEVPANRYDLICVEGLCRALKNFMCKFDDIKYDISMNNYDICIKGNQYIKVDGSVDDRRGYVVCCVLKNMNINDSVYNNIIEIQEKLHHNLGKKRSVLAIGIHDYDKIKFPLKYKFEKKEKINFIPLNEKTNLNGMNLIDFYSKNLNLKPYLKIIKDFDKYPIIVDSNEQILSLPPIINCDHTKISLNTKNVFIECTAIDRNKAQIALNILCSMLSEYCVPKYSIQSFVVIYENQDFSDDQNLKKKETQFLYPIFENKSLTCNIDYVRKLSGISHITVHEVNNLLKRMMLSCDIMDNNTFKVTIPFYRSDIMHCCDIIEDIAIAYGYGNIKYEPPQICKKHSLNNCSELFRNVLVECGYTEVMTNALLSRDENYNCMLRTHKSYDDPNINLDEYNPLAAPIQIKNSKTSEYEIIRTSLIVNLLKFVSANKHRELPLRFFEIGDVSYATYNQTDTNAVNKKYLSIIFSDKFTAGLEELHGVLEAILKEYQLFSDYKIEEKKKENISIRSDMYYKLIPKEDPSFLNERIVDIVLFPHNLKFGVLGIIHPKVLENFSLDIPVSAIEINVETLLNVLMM
# Assay: PfcFRS mode of inhibition study (malachite green)
# Format: biochemical
# Conditions: for 1/v (0.5 × IC50 ): inhibitor 0.5 × IC50; for 1/V (1 × IC50 ) / 1/v (1 × IC50 ): inhibitor 1 × IC50
# Method: These were done using malachite green assay as per earlier published reports[1],[6]. Briefly, the reaction was performed for 100 µM ATP, 50 µM L-phenylalanine and 100 nM recombinant PheRS enzymes (Pf, Pv, Hs, Pf mutant (L550V)) in a buffer containing 30 mM HEPES (pH 7.5), 150 mM, NaCl, 30 mM KCl, 50 mM, MgCl2, 1 mM DTT, and 2 U/ml E. coli inorganic pyrophosphatase (NEB) at 37 °C. Enzymatic reactions (50 μl total volume) were performed in clear, flat-bottomed, 96-well plates (Costar 96-well standard microplates). The reaction mixture was incubated for 2 h at 37 °C. The reaction was stopped by adding 12.5 μl of malachite green solution to the reaction mixture and levels of inorganic phosphate (Pi) were detected after incubation of 5 min at room temperature. Absorbance was the measured at 620 nm using a Spectramax M2 (Molecular Devices). Reactions without FRS enzyme were performed as background controls, values of which were subtracted from the reactions with enzyme. BRD1389 was added to our aminoacylation assay reaction buffer in varying concentrations ranging from 0.1 nM to 10,000 nM. The IC50 value for the data is shown for three replicates as the mean ± SD.
# To establish the mode of inhibition of BRD1389, data sets (generated using the malachite Green assay platform as described in the above enzyme inhibition assays method section) were collected by varying both the inhibitor and substrate concentrations.
# [1] = ATP 15.6 uM, saturating L-Phe 1000 μM
# [2] = ATP 31.25 uM, saturating L-Phe 1000 μM
# [3] = ATP 62.5 uM, saturating L-Phe 1000 μM
# [4] = ATP 125 uM, saturating L-Phe 1000 μM
# [5] = ATP 250 uM, saturating L-Phe 1000 μM
# [6] = ATP 500 uM, saturating L-Phe 1000 μM
# [7] = L-Phe 0.015625 mM, saturating ATP 500 μM
# [8] = L-Phe 0.031 mM, saturating ATP 500 μM
# [9] = L-Phe 0.0625 mM, saturating ATP 500 μM
# [10] = L-Phe 0.125 mM, saturating ATP 500 μM
# [11] = L-Phe 0.25 mM, saturating ATP 500 μM
# [12] = L-Phe 0.5 mM, saturating ATP 500 μM
# [13] = L-Phe 1 mM, saturating ATP 500 μM
smiles,measurement,setting,value
COC[C@@H]1[C@H](c2ccc(C#Cc3ccccc3)cc2)[C@@H]2CN(C(=O)Nc3ccc(OC4CC4)cc3)C[C@@H](O)[C@@H](O)CN12 [BRD1389],Ki,"ATP varied, L-Phe saturating, non-competitive inhibition model",10 ± 5 nM
same,Ki,"L-Phe varied, ATP constant, global competitive inhibition model",6 ± 2 nM
same,Mode of inhibition with respect to ATP,"PfcFRS, ATP varied at saturating L-Phe",non-competitive inhibition; also recorded: likely a non-competitive inhibitor
same,Mode of inhibition with respect to L-Phe,"PfcFRS, L-Phe varied at saturating ATP",competitive inhibition; also recorded: competitive inhibitor
same,1/v (0.5 × IC50 ),[1],50.7634
same,1/v (0.5 × IC50 ),[2],35.2611
same,1/v (0.5 × IC50 ),[3],25.2226
same,1/v (0.5 × IC50 ),[4],18.8398
same,1/v (0.5 × IC50 ),[5],16
same,1/v (0.5 × IC50 ),[6],13.77
same,1/v (0.5 × IC50 ),[7],19.05
same,1/v (0.5 × IC50 ),[8],12.5
same,1/v (0.5 × IC50 ),[9],10
same,1/v (0.5 × IC50 ),[10],8.3
same,1/v (0.5 × IC50 ),[11],7.2
same,1/v (0.5 × IC50 ),[12],6.5
same,1/v (0.5 × IC50 ),[13],6.2
same,1/V (1 × IC50 ),[1],66.6667
same,1/V (1 × IC50 ),[2],44.4444
same,1/V (1 × IC50 ),[3],40.1698
same,1/V (1 × IC50 ),[4],25.8
same,1/V (1 × IC50 ),[5],20
same,1/V (1 × IC50 ),[6],13.7741
same,1/v (1 × IC50 ),[7],30
same,1/v (1 × IC50 ),[8],18.03
same,1/v (1 × IC50 ),[9],12
same,1/v (1 × IC50 ),[10],9
same,1/v (1 × IC50 ),[11],8
same,1/v (1 × IC50 ),[12],7.2
same,1/v (1 × IC50 ),[13],7
